Pest or weed control data for 12 molecules are collected here from patent US8530667B2, “Herbicides” (Syngenta Limited, priority 2007, dated 2013).

Common to all, as to format: in vivo
For assay [1], the system named is Amaranthus retoflexus (AMARE). Put plainly: Example B post-emergence herbicidal activity, glasshouse pot test. Conditions: Amaranthus retroflexus, 312 h, evaluated after 13 days, read-out: Post-emergence activity AMARE (100=total damage to plant; 0=no damage to plant); for pest or weed control at 250 g/ha: rate 250 g/ha; for pest or weed control at 1000 g/ha: rate 1000 g/ha. On the procedure:
(§1) Seeds of a variety of test species were sown in standard soil in pots. After cultivation for one day (pre-emergence) or after 8 days cultivation (post-emergence) under controlled conditions in a glasshouse (at 24/16° C., day/night; 14 hours light; 65% humidity), the plants were sprayed with an aqueous spray solution derived from the formulation of the technical active ingredient in acetone/water (50:50) solution containing 0.5% Tween 20 (polyoxyethelyene sorbitan monolaurate, CAS RN 9005-64-5). The test plants were then grown in a glasshouse under controlled conditions in a glasshouse (at 24/16° C., day/night; 14 hours light; 65% humidity) and watered twice daily. After 13 days for pre and post-emergence, the test was evaluated (100=total damage to plant; 0=no damage to plant). Alopecurus myosuroides (ALOMY), Avena fatua (AVEFA), Setaria faberi (SETFA), Echinochloa crus-galli (ECHCG) and Amaranthus retoflexus (AMARE)

Assay [2] concerns Echinochloa crus-galli (ECHCG). The assay is described as above. The following applies: 312 h, evaluated after 13 days, read-out: Post-emergence activity ECHCG (100=total damage to plant; 0=no damage to plant); for pest or weed control at 250 g/ha: rate 250 g/ha; for pest or weed control at 1000 g/ha: rate 1000 g/ha. On the procedure:
as §1

Assay [3] deals with Avena fatua (AVEFA). Described as above. The following applies: 312 h, evaluated after 13 days, read-out: Post-emergence activity AVEFA (100=total damage to plant; 0=no damage to plant); for pest or weed control at 250 g/ha: rate 250 g/ha; for pest or weed control at 1000 g/ha: rate 1000 g/ha. On the procedure:
as §1

Assay [4] relates to Alopecurus myosuroides (ALOMY). The assay is described as above. Conditions: 312 h, evaluated after 13 days, read-out: Post-emergence activity ALOMY (100=total damage to plant; 0=no damage to plant); for pest or weed control at 250 g/ha: rate 250 g/ha; for pest or weed control at 1000 g/ha: rate 1000 g/ha. On the procedure: as §1
The subject of assay [5] is Setaria faberi (SETFA). The description is as above. Conditions: 312 h, evaluated after 13 days, read-out: Post-emergence activity SETFA (100=total damage to plant; 0=no damage to plant); for pest or weed control at 250 g/ha: rate 250 g/ha; for pest or weed control at 1000 g/ha: rate 1000 g/ha. On the procedure: as §1
Assay [6] concerns Amaranthus retoflexus (AMARE). Nature of the assay: Example B pre-emergence herbicidal activity, glasshouse pot test. Conditions: Amaranthus retroflexus, 312 h, Rate 250 g/ha, evaluated after 13 days, read-out: Pre-Emergence Activity AMARE (100=total damage to plant; 0=no damage to plant). On the procedure: as §1
Assay [7] has as its system Echinochloa crus-galli (ECHCG). The assay is described as above. Conditions: 312 h, Rate 250 g/ha, evaluated after 13 days, read-out: Pre-Emergence Activity ECHCG (100=total damage to plant; 0=no damage to plant). On the procedure:
as §1

Assay [8] deals with Avena fatua (AVEFA). Described as above. Conditions: 312 h, Rate 250 g/ha, evaluated after 13 days, read-out: Pre-Emergence Activity AVEFA (100=total damage to plant; 0=no damage to plant). On the procedure:
as §1

Assay [9] deals with Alopecurus myosuroides (ALOMY). The assay is described as above. The following applies: 312 h, Rate 250 g/ha, evaluated after 13 days, read-out: Pre-Emergence Activity ALOMY (100=total damage to plant; 0=no damage to plant). On the procedure: as §1
Assay [10] concerns Setaria faberi (SETFA). The assay is described as above. The following applies: 312 h, Rate 250 g/ha, evaluated after 13 days, read-out: Pre-Emergence Activity SETFA (100=total damage to plant; 0=no damage to plant). On the procedure: as §1

As for `CCc1sc(-c2ccc(Cl)cc2)nc1C1=C(OC(=O)C(C)(C)C)[C@@H]2[C@H](C1=O)[C@H]1CC[C@@H]2O1` (racemic) [Compound P3], the pest or weed control at 250 g/ha came out at 0% in assay [1]; 100% in [2]; 100% in the assay on Avena fatua (AVEFA) [3]; 100% in [4]; 100% with Setaria faberi (SETFA) [5].

As to `CCc1sc(-c2ccc(Cl)cc2)nc1C1=C(OC(=O)C2CC2)[C@@H]2[C@H](C1=O)[C@H]1CC[C@@H]2O1` (racemic) [Compound P4, cyclopropanecarboxylic acid-4-[2-(4-chloro-phenyl)-5-ethyl-thiazol-4-yl]-5-oxo-10-oxa-tricyclo[5.2.1.0*2,6*]dec-3-en-3-yl ester], the pest or weed control at 250 g/ha in [1] was 0%; in assay [2], 100%; with Avena fatua (AVEFA) [3], 100%; in assay [4], 100%; with Setaria faberi (SETFA) [5] it was 100%; in assay [6], 0%. For the same molecule, the pest or weed control at 250 g/ha in assay [7] came to 90%; with Avena fatua (AVEFA) [8], 90%; in assay [9], 60%; in the assay on Setaria faberi (SETFA) [10], 90%.

Take `CC(=O)OC1=C(c2nc(-c3ccc(Br)cn3)sc2C)C(=O)[C@H]2[C@@H]1[C@@H]1CC[C@H]2O1` (racemic) [Compound P5]: the pest or weed control at 250 g/ha in assay [1] is 0%; in [2], 100%; with Avena fatua (AVEFA) [3], 90%; in assay [4], 90%; in the assay on Setaria faberi (SETFA) [5], 100%; in assay [6], 0%. Moreover, the pest or weed control at 250 g/ha in assay [7] worked out at 90%; in the assay on Avena fatua (AVEFA) [8], 70%; in [9] it was 50%; in the assay on Setaria faberi (SETFA) [10], 100%.

Consider `Cc1sc(-c2ccc(Br)cn2)nc1C1=C(OC(=O)C2CC2)[C@@H]2[C@H](C1=O)[C@H]1CC[C@@H]2O1` (racemic) [Compound P6], for which the pest or weed control at 250 g/ha in [1] came out at 0%; in assay [2], 100%; in the assay with Avena fatua (AVEFA) [3], 90%; in [4], 90%; with Setaria faberi (SETFA) [5] it was 100%; in assay [6], 0%. Moreover, the pest or weed control at 250 g/ha was found to be 20% in assay [7], 0% in the assay with Avena fatua (AVEFA) [8], 0% in [9] and 70% in the assay with Setaria faberi (SETFA) [10].

Turning to `Cc1cc(Br)ccc1-c1nc(C2=C(OC(=O)C(C)(C)C)[C@@H]3[C@H](C2=O)[C@H]2CC[C@@H]3O2)c(C)s1` (racemic) [Compound P7], the pest or weed control at 250 g/ha in assay [1] was 0%; in [2], 100%; in the assay on Avena fatua (AVEFA) [3], 100%; in [4] it was 100%; in the assay on Setaria faberi (SETFA) [5] it was 100%; in [6], 0%. Further, the pest or weed control at 250 g/ha (in assay [7]; with Avena fatua (AVEFA) [8]; in assay [9]; in the assay with Setaria faberi (SETFA) [10]) was 100% throughout.

For `CCc1sc(-c2ccc(Br)cc2C)nc1C1=C(OC(=O)c2ccc(Cl)cc2)[C@@H]2[C@H](C1=O)[C@H]1CC[C@@H]2O1` (racemic) [Compound P8], the pest or weed control at 250 g/ha in assay [1] was 0%; in assay [2], 100%; in the assay on Avena fatua (AVEFA) [3] it was 100%; in assay [4], 100%; in the assay with Setaria faberi (SETFA) [5] it was 100%; in assay [6], 0%. The pest or weed control at 250 g/ha worked out at 100% in assay [7], 30% in the assay on Avena fatua (AVEFA) [8], 90% in assay [9] and 100% with Setaria faberi (SETFA) [10].

Regarding `Cc1sc(-c2ccc(OC(F)F)cc2Cl)nc1C1=C(OC(=O)C(C)(C)C)[C@@H]2[C@H](C1=O)[C@H]1CC[C@@H]2O1` (racemic) [Compound P9], the pest or weed control at 250 g/ha in assay [1] was determined as 0%; in [2] it was 100%; in the assay on Avena fatua (AVEFA) [3], 90%; in [4], 100%; in the assay on Setaria faberi (SETFA) [5] it was 100%; in assay [6] it was 0%. Moreover, the pest or weed control at 250 g/ha in [7] was found to be 90%; with Avena fatua (AVEFA) [8], 50%; in [9], 70%; with Setaria faberi (SETFA) [10], 90%.

In the case of `CC(=O)OC1=C(c2nc(-c3ccc(OC(F)F)cc3F)sc2C)C(=O)[C@H]2[C@@H]1[C@@H]1CC[C@H]2O1` (racemic) [Compound P10], the pest or weed control at 250 g/ha in assay [1] is 20%; in assay [2], 100%; with Avena fatua (AVEFA) [3], 100%; in assay [4], 100%; in the assay with Setaria faberi (SETFA) [5], 100%; in assay [6], 0%. In addition, the pest or weed control at 250 g/ha in assay [7] stood at 100%; in the assay with Avena fatua (AVEFA) [8] it was 100%; in assay [9], 90%; with Setaria faberi (SETFA) [10], 100%.

For the molecule `CCc1sc(-c2ccc(Cl)cc2)cc1C1C(=O)[C@@H]2[C@H](C1=O)[C@H]1CC[C@@H]2O1` (some centres unmarked) [Compound T17, 4-[5-(4-chloro-phenyl)-2-ethyl-thiophen-3-yl]-10-oxa-tricyclo[5.2.1.0*2,6*]decane-3,5-dione], the pest or weed control at 1000 g/ha was 70% in assay [1]; 100% in assay [2]; 100% in the assay with Avena fatua (AVEFA) [3]; 100% in assay [4]; 100% in the assay with Setaria faberi (SETFA) [5].

Consider `Cc1sc(-c2cc(C(F)(F)F)n(C)n2)cc1C1C(=O)[C@@H]2[C@H](C1=O)[C@H]1CC[C@@H]2O1` (some centres unmarked) [Compound T18], for which the pest or weed control at 1000 g/ha came to 0% in [1]; 20% in [2]; 0% in the assay on Avena fatua (AVEFA) [3]; 20% in [4]; 40% in the assay on Setaria faberi (SETFA) [5].

Turning to `COC(=O)c1ccc(-c2cc(C3C(=O)[C@@H]4[C@H](C3=O)[C@H]3CC[C@@H]4O3)c(C)s2)cc1` (some centres unmarked) [Compound T19], the pest or weed control at 1000 g/ha was found to be 20% in assay [1]; 0% in assay [2]; 0% in the assay on Avena fatua (AVEFA) [3]; 10% in [4]; 30% in the assay with Setaria faberi (SETFA) [5].

Take `Cc1[se]c(-c2ccc(Cl)cc2)nc1C1C(=O)[C@@H]2[C@H](C1=O)[C@H]1CC[C@@H]2O1` (some centres unmarked) [Compound T34, 4-[2-(4-chloro-phenyl)-5-methyl-selenazol-4-yl]-10-oxa-tricyclo[5.2.1.0*2,6*]decane-3,5-dione]: the pest or weed control at 250 g/ha in assay [6] amounted to 0%; in [7], 70%; in the assay with Avena fatua (AVEFA) [8], 20%; in assay [9], 40%; in the assay with Setaria faberi (SETFA) [10], 90%.
